Assay in all cases: Post-emergence efficacy, glasshouse pot test
Common to all, as to assay type: in vivo
What all share (details): post-emergence application, evaluated after 13 days

Assay [1] deals with Amaranthus retoflexus (AMARE). How it is done:
(§1) B1 Post-Emergence Efficacy Seeds of a variety of test species are sown in standard soil in pots:—Solanum nigrum (SOLNI), Amaranthus retoflexus (AMARE), Setaria faberi (SETFA), Alopecurus myosuroides (ALOMY), Echinochloa crus-galli (ECHCG), Ipomoea hederacea (IPOHE), Lolium perenne (LOLPE). After 8 days cultivation (post-emergence) under controlled conditions in a glasshouse (at 24/16° C., day/night; 14 hours light; 65% humidity), the plants are sprayed with an aqueous spray solution derived from the formulation of the technical active ingredient in acetone/water (50:50) solution containing 0.5% Tween 20 (polyoxyethylene sorbitan monolaurate, CAS RN 9005-64-5). Compounds are applied at 1000 g/ha and 250 g/ha. The test plants are then grown in a glasshouse under controlled conditions in a glasshouse (at 24/16° C., day/night; 14 hours light; 65% humidity) and watered twice daily. After 13 days, the test is evaluated for the percentage damage caused to the plant. The biological activities are assessed on a five point scale (5=80-100%; 4=60-79%; 3=40-59%; 2=20-39%; 1=0-19%).

Assay [2] concerns Echinochloa crus-galli (ECHCG). As to the method: as §1
Assay [3] deals with Ipomoea hederacea (IPOHE). How it is done:
as §1

The test system of assay [4] is Lolium perenne (LOLPE). As to the method: as §1
Assay [5] has as its system Setaria faberi (SETFA). How it is done: as §1
Assay [6] concerns Solanum nigrum (SOLNI). As to the method: as §1

Each structure is given as a SMILES string.

In the case of `C#CCn1c(=O)c(-c2c(Cl)ccc(Cl)c2OCc2cnc(Cl)s2)c(O)c2cccnc21` [Compound 1.19], the results for the “percentage damage caused to the plant, five point scale, AMARE” value (from here on “percentage damage caused … AMARE”) in assay [1] (250 g/ha) and in assay [1] (1000 g/ha) were 4 (4=60-79%) and 5 (5=80-100%), respectively. In addition, the “percentage damage caused to the plant, five point scale, ECHCG” value (“percentage damage caused … ECHCG” below) in assay [2] (250 g/ha) is listed as 3 (3=40-59%); in assay [2] (1000 g/ha), 5 (5=80-100%). Further, the “percentage damage caused to the plant, five point scale, IPOHE” value (shortened to “percentage damage caused … IPOHE”) in assay [3] (250 g/ha) and in assay [3] (1000 g/ha) was 5 (5=80-100%) throughout. Besides, the “percentage damage caused to the plant, five point scale, LOLPE” value (“percentage damage caused … LOLPE” for short) in assay [4] (250 g/ha) and in assay [4] (1000 g/ha) was 5 (5=80-100%) throughout. Also, the results for the “percentage damage caused to the plant, five point scale, SETFA” value (“percentage damage caused … SETFA” below) in assay [5] (250 g/ha) and in assay [5] (1000 g/ha) were 4 (4=60-79%) and 5 (5=80-100%), respectively. In addition, the “percentage damage caused to the plant, five point scale, SOLNI” value (shortened to “percentage damage caused … SOLNI”) in assay [6] (250 g/ha) and in assay [6] (1000 g/ha) was 5 (5=80-100%) throughout.
On to `O=c1c(-c2c(Cl)ccc(Cl)c2OCc2cnc(Cl)s2)c(O)c2cccnc2n1CC(F)F` [Compound 3.19], for which the “percentage damage caused … AMARE” value in assay [1] (250 g/ha) and in assay [1] (1000 g/ha) was 5 (5=80-100%) in each case. The “percentage damage caused … ECHCG” value in assay [2] (250 g/ha) is 3 (3=40-59%); in assay [2] (1000 g/ha), 4 (4=60-79%). In addition, the “percentage damage caused … IPOHE” value in assay [3] (250 g/ha) and in assay [3] (1000 g/ha) was 5 (5=80-100%) throughout. Further, the figures for the “percentage damage caused … LOLPE” value in assay [4] (250 g/ha) and in assay [4] (1000 g/ha) were 4 (4=60-79%) and 5 (5=80-100%), respectively. Moreover, the “percentage damage caused … SETFA” value in assay [5] (250 g/ha) is given as 4 (4=60-79%); in assay [5] (1000 g/ha), 5 (5=80-100%). Further, the “percentage damage caused … SOLNI” value in assay [6] (250 g/ha) and in assay [6] (1000 g/ha) was 5 (5=80-100%) each time.
Consider `C#CCn1c(=O)c(-c2c(Cl)ccc(Cl)c2OCc2cnc(Cl)s2)c(O)c2nccnc21` [Compound 9.19, 7-[3,6-dichloro-2-[(2-chlorothiazol-5-yl)methoxy]phenyl]-8-hydroxy-5-prop-2-ynyl-pyrido[2,3-b]pyrazin-6-one], for which the “percentage damage caused … AMARE” value in assay [1] (250 g/ha) and in assay [1] (1000 g/ha) was 5 (5=80-100%) each time. The “percentage damage caused … ECHCG” value in assay [2] (250 g/ha) and in assay [2] (1000 g/ha) was 5 (5=80-100%) throughout. In addition, the “percentage damage caused … IPOHE” value in assay [3] (250 g/ha) and in assay [3] (1000 g/ha) was 5 (5=80-100%) throughout. The “percentage damage caused … LOLPE” value in assay [4] (250 g/ha) and in assay [4] (1000 g/ha) was 5 (5=80-100%) in each case. For the same molecule, the “percentage damage caused … SETFA” value in assay [5] (250 g/ha) and in assay [5] (1000 g/ha) was 5 (5=80-100%) each time. Further, the “percentage damage caused … SOLNI” value in assay [6] (250 g/ha) and in assay [6] (1000 g/ha) was 5 (5=80-100%) each time.
Regarding `O=c1c(-c2c(Cl)ccc(Cl)c2OCc2cnc(Cl)s2)c(O)c2nccnc2n1CC(F)F` [Compound 11.19], the “percentage damage caused … AMARE” value in assay [1] (250 g/ha) and in assay [1] (1000 g/ha) was 5 (5=80-100%) each time. Moreover, the “percentage damage caused … ECHCG” value in assay [2] (250 g/ha) was 5 (5=80-100%); in assay [2] (1000 g/ha), 4 (4=60-79%). Moreover, the “percentage damage caused … IPOHE” value in assay [3] (250 g/ha) and in assay [3] (1000 g/ha) was 5 (5=80-100%) in each case. In addition, the “percentage damage caused … LOLPE” value in assay [4] (250 g/ha) and in assay [4] (1000 g/ha) was 5 (5=80-100%) each time. In addition, the figures for the “percentage damage caused … SETFA” value in assay [5] (250 g/ha) and in assay [5] (1000 g/ha) were 4 (4=60-79%) and 5 (5=80-100%), respectively. In addition, the “percentage damage caused … SOLNI” value in assay [6] (250 g/ha) and in assay [6] (1000 g/ha) was 5 (5=80-100%) in each case.
As for `C#CCn1c(=O)c(-c2c(Cl)ccc(Cl)c2OCc2cnc(Cl)s2)c(O)c2c(OC)ccnc21` [Compound 17.19], the “percentage damage caused … AMARE” value in assay [1] (250 g/ha) and in assay [1] (1000 g/ha) was 5 (5=80-100%) in each case. For the same molecule, the “percentage damage caused … ECHCG” value in assay [2] (250 g/ha) and in assay [2] (1000 g/ha) was 5 (5=80-100%) throughout. Besides, the “percentage damage caused … IPOHE” value in assay [3] (250 g/ha) and in assay [3] (1000 g/ha) was 5 (5=80-100%) each time. For the same molecule, the “percentage damage caused … LOLPE” value in assay [4] (250 g/ha) is listed as 4 (4=60-79%); in assay [4] (1000 g/ha), 5 (5=80-100%). Besides, the “percentage damage caused … SETFA” value in assay [5] (250 g/ha) and in assay [5] (1000 g/ha) was 5 (5=80-100%) in each case. The “percentage damage caused … SOLNI” value in assay [6] (250 g/ha) and in assay [6] (1000 g/ha) was 5 (5=80-100%) each time.
Take `COc1ccnc2c1c(O)c(-c1c(Cl)ccc(Cl)c1OCc1cnc(Cl)s1)c(=O)n2CC(F)F` [Compound 19.19]: the “percentage damage caused … AMARE” value in assay [1] (250 g/ha) and in assay [1] (1000 g/ha) was 5 (5=80-100%) throughout. Also, the “percentage damage caused … ECHCG” value in assay [2] (250 g/ha) and in assay [2] (1000 g/ha) was 5 (5=80-100%) throughout. The “percentage damage caused … IPOHE” value in assay [3] (250 g/ha) and in assay [3] (1000 g/ha) was 5 (5=80-100%) each time. Further, the results for the “percentage damage caused … LOLPE” value in assay [4] (250 g/ha) and in assay [4] (1000 g/ha) were 4 (4=60-79%) and 5 (5=80-100%), respectively. Further, the “percentage damage caused … SETFA” value in assay [5] (250 g/ha) and in assay [5] (1000 g/ha) was 5 (5=80-100%) throughout. The “percentage damage caused … SOLNI” value in assay [6] (250 g/ha) and in assay [6] (1000 g/ha) was 5 (5=80-100%) throughout.

Values taken from US10292394B2, “Herbicidal compounds” (Syngenta Participations AG, priority 2015, dated 2019).
